ChEMBL document CHEMBL1134477, “Combinatorial lead optimization of a neuropeptide FF antagonist” (J Med Chem, 2001)
Where a SMILES comes first, the peptide text is derived from it. The star is where a group is joined. Dansyl = CN(C)c1cccc2c(S(=O)(=O)*)cccc12; Desaminotyrosyl = O=C(CCc1ccc(O)cc1)*

Experiments:
[1] = K' value on the basis of IAM (immobilized artificial membrane) retention; type: functional
[2] = target: Neuropeptide FF receptor 2 (Rattus norvegicus, UniProt Q9EQD2); assay: Binding affinity towards NPFF receptor was measured by the displacement of [125I]-YLFQPQRF-NH2
Sequence of Neuropeptide FF receptor 2 (Q9EQD2 whole entry): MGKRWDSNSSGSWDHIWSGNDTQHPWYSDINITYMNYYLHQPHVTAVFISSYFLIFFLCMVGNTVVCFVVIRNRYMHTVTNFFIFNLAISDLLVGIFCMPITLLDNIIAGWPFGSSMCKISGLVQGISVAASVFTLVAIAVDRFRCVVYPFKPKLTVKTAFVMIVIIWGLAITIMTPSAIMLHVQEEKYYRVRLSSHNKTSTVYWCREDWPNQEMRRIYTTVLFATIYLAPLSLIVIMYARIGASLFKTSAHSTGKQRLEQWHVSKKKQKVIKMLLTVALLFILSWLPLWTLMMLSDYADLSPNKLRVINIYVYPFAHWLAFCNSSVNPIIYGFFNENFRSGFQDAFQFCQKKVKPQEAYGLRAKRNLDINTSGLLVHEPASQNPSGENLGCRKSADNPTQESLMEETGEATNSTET

| SMILES | kIAM' [1] | Ki [2] |
| --- | --- | --- |
| CN(C)c1cccc2c(S(=O)(=O)NCC(=O)N[C@@H](CO)C(=O)N[C@@H](CCCN=C(N)N)C(N)=O)cccc12 (Dansyl-Gly-Ser-Arg-NH2) | 8 | 1.4 µM |
| CC(C)C[C@H](NC(=O)[C@H](Cc1ccccc1)NC(=O)CCc1ccc(O)cc1)C(=O)N[C@@H](Cc1ccccc1)C(=O)N[C@@H](CCC(N)=O)C(=O)N1CCC[C@H]1C(=O)N[C@@H](CCC(N)=O)C(=O)N[C@@H](CCCNC(=N)N)C(N)=O (Desaminotyrosyl-FLFQPQR-NH2) |  | 0.84 µM |
| CN(C)c1cccc2c(S(=O)(=O)N3CCC[C@H]3C(=O)N[C@@H](CCC(N)=O)C(=O)N[C@@H](CCCNC(=N)N)C(N)=O)cccc12 [DANSYLPQRAMIDE] | 5.9 | 13.6 µM |
